Test results: patent US7700655B2, “Antiallergic agents” (Institute of Medicinal Molecular Design, Inc., priority 2002, dated 2010)

Tests used:
[1] = test system: B cells isolated from mouse spleen; assay: IgE production inhibitory test of spleen B cell (ELISA); assay type: cell-based; conditions: 0.1 μM; rmIL-4 200 U/ml + soluble mCD40 ligand 100 ng/ml, 9 days; no-drug control 45.6
Procedure: IgE Production Inhibitory Test of Spleen B Cell
B cells isolated from mouse spleen were cultured with 200 U/ml of rmIL-4 and 100 ng/ml of soluble mCD40 ligand in the presence or absence of a test drug in PRMI 1640 medium containing 10% of bovine fetal serum for 9 days, and the amount of IgE in the culture medium was measured by ELISA method.

NC/Nga mouse [2] = assay: Dermatitis inhibitory test by atopic dermatitis model using NC/Nga mouse; assay type: in vivo; conditions: ointment containing 1% applied once a day; FIG. 2
Procedure: Dermatitis Inhibitory Test by Atopic Dermatitis Model Using NC/Nga Mouse
To the conventional NC/Nga mouse with the onset of severe dermatitis, an ointment containing 1% of a test substance for the drug treated group or a base material of the ointment for the control group was applied once a day, and clinical symptoms were recorded as scores with passage of day. Furthermore, the amounts of IgE in blood before and after the test were measured by ELISA.

HT-1080 cells = assay: Proliferation inhibitory test of fibrosarcoma (HT-1080) under PDGF stimulation (MTT assay); assay type: cell-based; conditions: 48 hours
Procedure: Proliferation Inhibitory Test of Fibrosarcoma (HT-1080) Under PDGF Stimulation
HT-1080 cells were cultured for 2 hours in EMEM medium containing 1% of FBS and NEAA in the presence or absence of a test substance. PDGF was added and the cells were cultured for 48 hours, and the proliferation of the cells was measured by MTT assay.

NC/Nga mouse [3] = assay: Immediate type allergy reaction inhibitory test (ear swelling test); assay type: in vivo; conditions: 15 mg/kg intraperitoneally, picryl chloride on auricle; FIG. 1
Procedure: Immediate Type Allergy Reaction Inhibitory Test (Ear Swelling Test)
To NC/Nga mouse sensitized by an intravenous administration of anti DNP-IgE, a diluent with a test compound for the drug administered group or that without a test drug for the control group was intraperitoneally administered. Two hours after the administration, picryl chloride dissolved in olive oil was applied to auricle to induce immediate allergy, and then swelling of the auricle was measured with passage of time for comparison of the drug administered group and the control group.

[4] = test system: mouse bone marrow-derived cultured mast cells (BMCMC); assay: Degranulation inhibitory test of mast cell (β-hexosaminidase release); assay type: cell-based; conditions: 1 h, anti DNP IgE / DNP-BSA 50 ng/ml stimulation, 60 minutes, read-out: Inhibitory Ration of Degranulation(%) at 10 μM Drug Concentration
Procedure: Degranulation Inhibitory Test of Mast Cell
Anti DNP IgE was added to mouse bone marrow-derived cultured mast cells (BMCMC) which were treated beforehand with anti DNP IgE for 4 days for expression of IgE receptor. The cells were cultured for 3 days, and treated for 1 hour with or without the addition of a test substance. Then, the medium was changed to α-Modified Eagle's Medium containing 10% of bovine fetal serum without phenol red. After cultivation for 60 minutes with rmIL-3 (100 U/ml) and DNP-BSA (50 ng/ml) in the presence or absence of the test substance, the concentrations of β-hexosaminidase in the culture medium and in the cells were determined, and the progress of degranulation was measured from a ratio of the amounts. The inhibitory ratio of the degranulation by the drug was calculated when degranulation in the absence of the test substance was taken as 100%, and degranulation in the presence of anti DNP-IgE only and in the absence of the test substance was taken as 0%.

[5] = test system: Bone marrow-derived cultured mast cells of NC/Nga mouse; assay: Proliferation inhibitory test of mast cell under stimulation by SCF and IL-3; assay type: cell-based; conditions: rmIL-3 100 U/ml + SCF 100 ng/ml, living cells by trypan blue
Procedure: Proliferation Inhibitory Test of Mast Cell Under Stimulation by SCF and IL-3
Bone marrow-derived cultured mast cells (10^5 cells/ml) of NC/Nga mouse were cultured with rmIL-3 (100 U/ml) and SCF (100 ng/ml) in the presence or absence of a test drug in α-Modified Eagle's Medium containing 10% of bovine fetal serum without phenol red, and then stained with trypan blue, and the number of living cells was counted.

## O=C(Nc1cc(C(F)(F)F)cc(C(F)(F)F)c1)c1cc(Cl)ccc1O [compound 50, N-[3,5-Bis(trifluoromethyl)phenyl]-5-chloro-2-hydroxybenzamide]
[1]
  Amount of IgE: 24 ng/mL
NC/Nga mouse [2]
  effect against dermatitis with an atopic dermatitis model (clinical symptom scores): inhibitory effect
HT-1080 cells; Drug Concentration 250 nM
  Inhibitory Ratio of Proliferation(%): 65.4%
HT-1080 cells; Drug Concentration 500 nM
  Inhibitory Ratio of Proliferation(%): 96.6%
NC/Nga mouse [3]
  effect against immediate type allergy (swelling of the auricle): inhibitory effect
[4]
  inhibition at 10 µM: > 99%
[5]; 1 μM, culture time 0 hr
  Number of Cell: 100000 mL⁻¹
[5]; 1 μM, culture time 24 hr
  Number of Cell: 86000 mL⁻¹
[5]; 1 μM, culture time 48 hr
  Number of Cell: 84000 mL⁻¹
[5]; 1 μM, culture time 72 hr
  Number of Cell: 116000 mL⁻¹
[5]; 5 μM, culture time 0 hr
  Number of Cell: 100000 mL⁻¹
[5]; 5 μM, culture time 24 hr
  Number of Cell: 70000 mL⁻¹
[5]; 5 μM, culture time 48 hr
  Number of Cell: 52000 mL⁻¹
[5]; 5 μM, culture time 72 hr
  Number of Cell: 22000 mL⁻¹

## CC(C)(C)c1ccc(O)c(C(=O)Nc2cc(C(F)(F)F)cc(C(F)(F)F)c2)c1 [compound 56, N-[3,5-Bis(trifluoromethyl)phenyl]-5-[(1,1-dimethyl)ethyl]-2-hydroxybenzamide]
HT-1080 cells; Drug Concentration 250 nM
  Inhibitory Ratio of Proliferation(%): 37.5%
HT-1080 cells; Drug Concentration 500 nM
  Inhibitory Ratio of Proliferation(%): 96.9%
[4]
  inhibition at 10 µM: 92%

## O=C(Nc1cc(C(F)(F)F)cc(C(F)(F)F)c1)c1cc(-n2cccc2)ccc1O [compound 71]
HT-1080 cells; Drug Concentration 250 nM
  Inhibitory Ratio of Proliferation(%): 57.9%
HT-1080 cells; Drug Concentration 500 nM
  Inhibitory Ratio of Proliferation(%): 83.1%

## O=C(Nc1cc(C(F)(F)F)ccc1C(F)(F)F)c1cc(Cl)ccc1O [compound 100, N-[2,5-bis(trifluoromethyl)phenyl]-5-chloro-2-hydroxybenzamide]
[4]
  inhibition at 10 µM: 83%

## O=C(Nc1cc(C(F)(F)F)ccc1Cl)c1cc(Cl)ccc1O [compound 113, 5-chloro-N-[2-chloro-5-(trifluoromethyl)phenyl]-2-hydroxybenzamide]
[4]
  inhibition at 10 µM: 93%

## CC(=O)Oc1ccccc1C(=O)Nc1cc(Cl)cc(Cl)c1 [compound 172, 2-acetoxy-N-(3,5-dichlorophenyl)benzamide]
other
  melting point: 218 to 219 °C

## CC(C)(C)C(=O)c1sc(NC(=O)c2cc(Cl)ccc2O)nc1C(C)(C)C [compound 195, 5-Chloro-N-{4-[(1,1-dimethyl)ethyl]-5-[(2,2-dimethyl)propionyl]thiazol-2-yl}-2-hydroxybenzamide]
HT-1080 cells; Drug Concentration 250 nM
  Inhibitory Ratio of Proliferation(%): 44.7%
HT-1080 cells; Drug Concentration 500 nM
  Inhibitory Ratio of Proliferation(%): 81.7%
[4]
  inhibition at 10 µM: 72%

## CC(C)(C)c1nc(NC(=O)c2cc(Br)ccc2O)sc1N1CCOCC1 [compound 199, 5-Bromo-N-{4-[(1,1-dimethyl)ethyl]-5-morpholinothiazol-2-yl}-2-hydroxybenzamide]
HT-1080 cells; Drug Concentration 250 nM
  Inhibitory Ratio of Proliferation(%): 26.2%
HT-1080 cells; Drug Concentration 500 nM
  Inhibitory Ratio of Proliferation(%): 24.2%

## CC(C)(C)c1nc(NC(=O)c2cc(Br)ccc2O)sc1N1CCN(c2ccccc2)CC1 [compound 201, 5-Bromo-N-{4-[(1,1-dimethyl)ethyl]-5-(4-phenylpiperazin-1-yl)thiazol-2-yl}-2-hydroxybenzamide]
HT-1080 cells; Drug Concentration 250 nM
  Inhibitory Ratio of Proliferation(%): 60.3%
HT-1080 cells; Drug Concentration 500 nM
  Inhibitory Ratio of Proliferation(%): 76.2%

## O=C(Nc1cc(C(F)(F)F)ccc1C(F)(F)F)c1cc(Br)ccc1O [compound 552]
HT-1080 cells; Drug Concentration 250 nM
  Inhibitory Ratio of Proliferation(%): 24.0%
HT-1080 cells; Drug Concentration 500 nM
  Inhibitory Ratio of Proliferation(%): 19.4%
